Patent US20170094976A1, “TREATMENT OF WATER” (BWA WATER ADDITIVES UK LIMITED, priority 2015, published 2017)

Experiments:
Enterobacter aerogenes = experiment: Log10 reduction of viable facultative anaerobic bacteria in high-TDS buffer after biocide contact; format: cell-based; conditions: TDS 30,000 mg l^-1, pH 8 phosphate buffer, room temperature, versus control, ppm active per example, 8 = complete kill
Method: (§1) Aqueous systems inoculated with anaerobe and facultative anaerobe culture and having a total dissolved solids (TDS) concentration of 30,000 mg l^−1 were prepared and treated with treatment agents comprising: (a) a phosphonium compound and (b) a quaternary ammonium salt. The phosphonium compound (a) used was tri n-butyl n-tetradecyl phosphonium chloride (TTPC). The quaternary ammonium salt (b) used was 1-(3-chloroallyl)-3,5,7-triaza-1-azoniaadamantane chloride (CTAC).
(§2) A suspension of Desulfovibrio vulgaris plus Enterobacter aerogenes bacteria containing from 1×10^5 to 1×10^6 cells/mL was prepared in sterile pH 8 phosphate buffer containing sodium chloride to give the desired total dissolved solids (TDS) concentration. Aliquots of this suspension were dosed with the indicated concentrations of the compounds (a) and (b) with the concentrations being measured as ppm active by weight. The mixtures were allowed to stand at room temperature. At the designated contact times, each mixture was sampled to determine the total number of viable cells of both Desulfovibrio vulgaris and Enterobacter aerogenes by serial 10-fold dilution into API RP 38 media vials and anaerobic acid producing media vials, respectively. The vials were incubated at 37° C. for 72 hours. Results were recorded as log10 reduction in the viable count versus the control.
(§3) The efficacy of the treatment agents was evaluated by measuring the Log10 Reduction of the anaerobic bacterium Desulfovibrio vulgaris and the facultative anaerobic bacterium Enterobacter aerogenes after contact times of 1 hour, 4 hours, 24 hours and 48 hours as detailed in Table 1. For TTPC the stated ppm value relates to the amount of TTPC added (active). For the CTAC the stated ppm relates to the amount of CTAC added (active).

Desulfovibrio vulgaris = experiment: Log10 reduction of viable anaerobic bacteria in high-TDS buffer after biocide contact; format: cell-based; conditions: TDS 30,000 mg l^-1, pH 8 phosphate buffer, room temperature, versus control, ppm active per example, 5 = complete kill
Method: as §1, §2, §3

`CCCCCCCCCCCCCC[P+](CCCC)(CCCC)CCCC.[Cl-]` [Example 1, tri n-butyl n-tetradecyl phosphonium chloride] was tested, and the “Log10 Reduction Facultative Anaerobes” value (Enterobacter aerogenes; contact time 1 hour) was 1 and the “Log10 Reduction Anaerobes” value (Desulfovibrio vulgaris; contact time 1 hour) was 2.
With `CCCCCCCCCCCCCC[P+](CCCC)(CCCC)CCCC.[Cl-]` [Example 2, tri n-butyl n-tetradecyl phosphonium chloride] the “Log10 Reduction Facultative Anaerobes” value (Enterobacter aerogenes; contact time 1 hour) was 3 and the “Log10 Reduction Anaerobes” value (Desulfovibrio vulgaris; contact time 1 hour) was 3.
`ClC=CC[N+]12CN3CN(CN(C3)C1)C2.[Cl-]` [Example 4, 1-(3-chloroallyl)-3,5,7-triaza-1-azoniaadamantane chloride] was tested, and the “Log10 Reduction Facultative Anaerobes” value (Enterobacter aerogenes; contact time 1 hour) was 0 and the “Log10 Reduction Anaerobes” value (Desulfovibrio vulgaris; contact time 1 hour) was 0.
In the case of `CCCCCCCCCCCCCC[P+](CCCC)(CCCC)CCCC.[Cl-]` [Example 9, tri n-butyl n-tetradecyl phosphonium chloride], the “Log10 Reduction Facultative Anaerobes” value (Enterobacter aerogenes; contact time 4 hours) is reported as 2 and the “Log10 Reduction Anaerobes” value (Desulfovibrio vulgaris; contact time 4 hours) is reported as 5.
`CCCCCCCCCCCCCC[P+](CCCC)(CCCC)CCCC.[Cl-]` [Example 10, tri n-butyl n-tetradecyl phosphonium chloride] was tested, and the “Log10 Reduction Facultative Anaerobes” value (Enterobacter aerogenes; contact time 4 hours) was 8 and the “Log10 Reduction Anaerobes” value (Desulfovibrio vulgaris; contact time 4 hours) was 5.
For `ClC=CC[N+]12CN3CN(CN(C3)C1)C2.[Cl-]` [Example 11, 1-(3-chloroallyl)-3,5,7-triaza-1-azoniaadamantane chloride], the “Log10 Reduction Facultative Anaerobes” value (Enterobacter aerogenes; contact time 4 hours) was 0 and the “Log10 Reduction Anaerobes” value (Desulfovibrio vulgaris; contact time 4 hours) was 0.
In the case of `ClC=CC[N+]12CN3CN(CN(C3)C1)C2.[Cl-]` [Example 12, 1-(3-chloroallyl)-3,5,7-triaza-1-azoniaadamantane chloride], the “Log10 Reduction Facultative Anaerobes” value (Enterobacter aerogenes; contact time 4 hours) is reported as 1 and the “Log10 Reduction Anaerobes” value (Desulfovibrio vulgaris; contact time 4 hours) is reported as 0.
For `CCCCCCCCCCCCCC[P+](CCCC)(CCCC)CCCC.[Cl-]` [Example 17, tri n-butyl n-tetradecyl phosphonium chloride], the “Log10 Reduction Facultative Anaerobes” value (Enterobacter aerogenes; contact time 24 hours) was 4 and the “Log10 Reduction Anaerobes” value (Desulfovibrio vulgaris; contact time 24 hours) was 5.
In the case of `CCCCCCCCCCCCCC[P+](CCCC)(CCCC)CCCC.[Cl-]` [Example 18, tri n-butyl n-tetradecyl phosphonium chloride], the “Log10 Reduction Facultative Anaerobes” value (Enterobacter aerogenes; contact time 24 hours) is reported as 7 and the “Log10 Reduction Anaerobes” value (Desulfovibrio vulgaris; contact time 24 hours) is reported as 5.
For `ClC=CC[N+]12CN3CN(CN(C3)C1)C2.[Cl-]` [Example 19, 1-(3-chloroallyl)-3,5,7-triaza-1-azoniaadamantane chloride], the “Log10 Reduction Facultative Anaerobes” value (Enterobacter aerogenes; contact time 24 hours) was 0 and the “Log10 Reduction Anaerobes” value (Desulfovibrio vulgaris; contact time 24 hours) was 1.
For `ClC=CC[N+]12CN3CN(CN(C3)C1)C2.[Cl-]` [Example 20, 1-(3-chloroallyl)-3,5,7-triaza-1-azoniaadamantane chloride], the “Log10 Reduction Facultative Anaerobes” value (Enterobacter aerogenes; contact time 24 hours) was 2 and the “Log10 Reduction Anaerobes” value (Desulfovibrio vulgaris; contact time 24 hours) was 3.
In the case of `CCCCCCCCCCCCCC[P+](CCCC)(CCCC)CCCC.[Cl-]` [Example 25, tri n-butyl n-tetradecyl phosphonium chloride], the “Log10 Reduction Facultative Anaerobes” value (Enterobacter aerogenes; contact time 48 hours) is reported as 6 and the “Log10 Reduction Anaerobes” value (Desulfovibrio vulgaris; contact time 48 hours) is reported as 5.
For `ClC=CC[N+]12CN3CN(CN(C3)C1)C2.[Cl-]` [Example 27, 1-(3-chloroallyl)-3,5,7-triaza-1-azoniaadamantane chloride], the “Log10 Reduction Facultative Anaerobes” value (Enterobacter aerogenes; contact time 48 hours) was 2 and the “Log10 Reduction Anaerobes” value (Desulfovibrio vulgaris; contact time 48 hours) was 5.
`ClC=CC[N+]12CN3CN(CN(C3)C1)C2.[Cl-]` [Example 28, 1-(3-chloroallyl)-3,5,7-triaza-1-azoniaadamantane chloride] was tested, and the “Log10 Reduction Facultative Anaerobes” value (Enterobacter aerogenes; contact time 48 hours) was 3 and the “Log10 Reduction Anaerobes” value (Desulfovibrio vulgaris; contact time 48 hours) was 5.
